The supplement of paper PMC4862054

What was measured:
Conditions in all cases: incubation time: 72 h
DU-4475 [1] = test: drug sensitivity score (DSS), CellTiter-Glo (DSS (AUC-based score)); higher = stronger drug effect (viability inhibition or cytotoxicity); extreme values may be limits of the assay
Outline: (§1)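 Compound was dispensed into 384-well plates at 5 concentrations in 10-fold steps spanning a 10,000-fold range chosen for each compound, and 20 µl of breast cancer cell suspension was added before 72 h of incubation. CellTox Green fluorescence was read at 485/520 nm, followed by CellTiter-Glo luminescence after 10 min at room temperature. Values on each plate were normalised to 0.1 % DMSO and a positive kill control. The drug sensitivity score came from the area under the fitted dose-response curve.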

HCC1599 [2] = test: as above
Outline: as §1

MDA-MB-453 [3] = test: as above
Outline: as §1

SK-BR-3 = test: as above
Outline: as §1

CAL-51 [4] = test: as above
Outline: as §1

CAL-85-1 [5] = test: as above
Outline: as §1

MCF-10A [6] = test: as above
Outline: as §1

Hs578T [7] = test: as above
Outline: as §1

HDQ-P1 [8] = test: as above
Outline: as §1

DU-4475 [9] = test: drug sensitivity score (DSS), CellTox Green (DSS (AUC-based score)); higher = stronger drug effect (viability inhibition or cytotoxicity); extreme values may be limits of the assay
Outline: as §1

HCC1143 = test: as above
Outline: as §1

BT-549 = test: as above
Outline: as §1

HCC1599 [10] = test: as above
Outline: as §1

MDA-MB-468 = test: as above
Outline: as §1

MDA-MB-453 [11] = test: as above
Outline: as §1

HCC1937 = test: as above
Outline: as §1

CAL-148 = test: as above
Outline: as §1

BT-474 = test: as above
Outline: as §1

MFM-223 = test: as above
Outline: as §1

CAL-51 [12] = test: as above
Outline: as §1

CAL-85-1 [13] = test: as above
Outline: as §1

CAL-120 = test: as above
Outline: as §1

MCF-10A [14] = test: as above
Outline: as §1

MDA-MB-436 = test: as above
Outline: as §1

MDA-MB-231 = test: as above
Outline: as §1

HDQ-P1 [15] = test: as above
Outline: as §1

Hs578T [16] = test: as above
Outline: as §1

SMILES | drug sensitivity score (DU-4475 [1]) | drug sensitivity score (HCC1599 [2]) | drug sensitivity score (MDA-MB-453 [3]) | drug sensitivity score (SK-BR-3) | drug sensitivity score (CAL-51 [4]) | drug sensitivity score (CAL-85-1 [5]) | drug sensitivity score (MCF-10A [6]) | drug sensitivity score (Hs578T [7]) | drug sensitivity score (HDQ-P1 [8]) | drug sensitivity score (DU-4475 [9]) | drug sensitivity score (HCC1143) | drug sensitivity score (BT-549) | drug sensitivity score (HCC1599 [10]) | drug sensitivity score (MDA-MB-468) | drug sensitivity score (MDA-MB-453 [11]) | drug sensitivity score (HCC1937) | drug sensitivity score (CAL-148) | drug sensitivity score (BT-474) | drug sensitivity score (MFM-223) | drug sensitivity score (CAL-51 [12]) | drug sensitivity score (CAL-85-1 [13]) | drug sensitivity score (CAL-120) | drug sensitivity score (MCF-10A [14]) | drug sensitivity score (MDA-MB-436) | drug sensitivity score (MDA-MB-231) | drug sensitivity score (HDQ-P1 [15]) | drug sensitivity score (Hs578T [16])
CCc1cncnc1N1CCN(Cc2nc3ccc(C(F)(F)F)cc3[nH]2)CC1 | 0 | 0 | 1.08 | 0 | 7.14 | 0 | 0 | 0 | 0 | 0 | 0 | 0 | 0 | 0 | 0 | 0 | 0 | 0 | 0 | 0 | 0 | 0 | 0 | 0 | 0 | 0 | –
CC[C@@H]1C(=O)N(C)c2cnc(Nc3ccc(C(=O)NC4CCN(C)CC4)cc3OC)nc2N1C1CCCC1 [BI 2536] | 7.02 | 12.4 | 11.5 | 25.7 | 17.7 | 14.1 | 9.18 | 13.3 | 4.76 | 0 | 0 | 0 | 0 | 0 | 0 | 0 | 0 | 0 | 6.01 | 16.7 | 10.3 | 1.97 | 10.3 | 0 | 9.92 | 0 | 4.87
O=C(O)CCCCC(CCSCc1ccccc1)SCc1ccccc1 (stereo not drawn) [CPI-613] | 0 | 0 | 0 | 0 | 0 | 0 | 0 | 0 | 0 | 0 | 0 | 0 | 0 | 0 | 0 | 0 | 0 | 0 | 0 | 0 | 0.118 | 0 | 0 | 0 | 0 | 0 | 0
C=CC(=O)Nc1cc2c(Nc3ccc(F)c(Cl)c3)ncnc2cc1OCCCN1CCOCC1 [Canertinib] | 0.331 | 3.8 | 6.35 | 20.8 | 14.1 | 13.6 | 22 | 2.99 | 11.8 | 0 | 0 | 0.986 | 0 | 5.52 | 0 | 0 | 0 | 3.65 | 2.12 | 5.83 | 8.99 | 2.34 | 8.86 | 0 | 3.46 | 3.34 | 6.15
O=C(O)C1(C(=O)O)CCC1.[NH2-].[NH2-].[Pt+2] [Carboplatin] | 0 | 0 | 0 | 0 | 0 | 0 | 0 | 0 | 0 | 0 | 0 | 1.73 | 0 | 0 | 0 | 0 | 0 | 0 | 0 | 0 | 0 | 0 | 0 | 0 | 0 | 0 | 0
COc1cc2c(Oc3ccc4[nH]c(C)cc4c3F)ncnc2cc1OCCCN1CCCC1 [Cediranib] | 0 | 0 | 0 | 0 | 0 | 0 | 0 | 0 | 0 | 0 | 0 | 0 | 0 | 0 | 0 | 0 | 0 | 0 | 0 | 0 | 1.23 | 0 | 0 | 0 | 0 | 0 | 0
Cc1ccc(-c2cc(C(F)(F)F)nn2-c2ccc(S(N)(=O)=O)cc2)cc1 [Celecoxib] | 0 | 0 | 0 | 0 | 0 | 0 | 0 | 0 | 0 | 0 | 0 | 0 | 0 | 0 | 0 | 0 | 0 | 0 | 0 | 0 | 0 | 0 | 0 | 0 | 0 | 0 | –
Nc1nc(F)nc2c1ncn2[C@@H]1O[C@H](CO)[C@@H](O)[C@@H]1O [Fludarabine] | 0 | 0 | 0 | 0 | 0 | 0.486 | 0 | 0 | 0 | 0 | 0 | 0 | 0 | 0 | 0 | 0 | 0 | 0 | – | 0 | 0 | 0 | 0 | 0 | 0 | 0 | 0
CCN(CC)CCCC(C)Nc1c2ccc(Cl)cc2nc2ccc(OC)cc12 (stereo not drawn) [Mepacrine] | 0 | 0 | 0 | 0 | 0 | 0 | 0 | 0 | 0 | 0 | 0 | 0 | 0 | 0.235 | 0 | 0 | 0 | 0 | 0 | 0 | 0 | 0 | 0 | 0 | 5 | 0 | –
O=C(O)C(=O)O.[NH-][C@@H]1CCCC[C@H]1[NH-].[Pt+2] [Oxaliplatin] | 0 | 0 | 0 | 0 | 0 | 0 | 0 | 0 | 0 | 0 | 0 | 0 | 0 | 0 | 0 | 0 | – | 0 | 0 | 0 | 0 | 0 | 1.93 | 0 | 0 | 1 | 0
COc1cc([C@@H]2c3cc4c(cc3[C@@H](O[C@@H]3O[C@@H]5CO[C@@H](c6cccs6)O[C@H]5[C@H](O)[C@H]3O)[C@H]3COC(=O)[C@H]23)OCO4)cc(OC)c1O [Teniposide] | 19.4 | 19 | 0 | 20.3 | 12.1 | 10.3 | 0 | 7.63 | 4.15 | 4.49 | 0 | 0 | 3.84 | 6.45 | 0 | 8.06 | 25.1 | 0 | 6.4 | 11.8 | 7.07 | 4.54 | – | 0 | 10.8 | 7.08 | 2.53
COc1cc2nccc(Oc3ccc(NC(=O)Nc4cc(C)on4)c(Cl)c3)c2cc1OC [Tivozanib] | 0 | 0 | 2.71 | 0 | 0 | 0 | 1.39 | 0 | 1.67 | 0 | 0 | 0 | 0 | 0 | 0 | 0 | 0 | 0 | 0 | – | 0 | 0 | 0 | 0 | 0 | 0 | 3.86
COc1cc2c(NC3CCN(C(C)C)CC3)nc(C3CCCCC3)nc2cc1OCCCN1CCCC1 [UNC0638] | 0.314 | 2.99 | 7.02 | 6.09 | 7.71 | 5.07 | 7.1 | 0 | 3.3 | 0 | 0 | 8.31 | 1.89 | 7.09 | 6.8 | 7.61 | 6.35 | 7.51 | 3.4 | 9.03 | 6.93 | 6.94 | 7.41 | 4.24 | 9.02 | 1.42 | –
